Test results published in PubChem BioAssay (NCI).
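Tested at 5 concentrations; 48 h exposure; 96-well plates; endpoints linearly interpolated, else capped at highest concentration. TGI marks complete inhibition of growth.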

Columns and labels:
Test in all cases: growth of human tumour cells (NCI), 48 h
A549 NSCLC = system: A549 NSCLC
HCT-116 colon = system: HCT-116 colon
IGROV1 ovarian = system: IGROV1 ovarian
K-562 leukemia = system: K-562 leukemia
MCF7 breast = system: MCF7 breast
MDA-MB-435 = system: MDA-MB-435
NCI-H226 lung = system: NCI-H226 lung
NCI/ADR-RES ovarian = system: NCI/ADR-RES ovarian
OVCAR-3 ovarian = system: OVCAR-3 ovarian
SN12C renal = system: SN12C renal
SNB-19 CNS = system: SNB-19 CNS
SR leukemia = system: SR leukemia
UO-31 renal = system: UO-31 renal

SMILES | TGI (A549 NSCLC) [µM] | TGI (HCT-116 colon) [µM] | TGI (IGROV1 ovarian) [µM] | TGI (K-562 leukemia) [µM] | TGI (MCF7 breast) [µM] | TGI (MDA-MB-435) [µM] | TGI (NCI-H226 lung) [µM] | TGI (NCI/ADR-RES ovarian) [µM] | TGI (OVCAR-3 ovarian) [µM] | TGI (SN12C renal) [µM] | TGI (SNB-19 CNS) [µM] | TGI (SR leukemia) [µM] | TGI (UO-31 renal) [µM]
Brc1c(C#CCC(c2ccccc2)(c2ccccc2)c2ccccc2)ccc(C#CCC(c2ccccc2)(c2ccccc2)c2ccccc2)c1Br | > 100 | > 100 | > 100 | > 100 | > 100 | > 100 | > 100 | > 100 | > 100 | > 100 | > 100 | > 100 | > 100
Nc1ncc(Cl)c(NCC2(CO)CC(CCc3ccccc3)C2)n1 (stereo not given) | > 100 | > 100 | > 100 | > 100 | > 100 | > 100 | > 100 | > 100 | > 100 | > 100 | > 100 | > 100 | > 100
COc1cc(C)cc2c1c(=O)c1ccccc1n2C | > 100 | 76.3 | > 100 | 39.4 | > 100 | > 100 | 81.5 | > 100 | > 100 | > 100 | > 100 | 78.7 | 
Cc1oc(N)c(S(=O)(=O)c2ccc(Cl)cc2)c1C | > 100 | > 100 | > 100 | > 100 | > 100 | > 100 | > 100 | > 100 | > 100 |  | > 100 | > 100 | > 100
